Some test systems named below: MCF7 breast; TK-10 renal; NCI-H460 lung; NCI-H226 lung; EKVX NSCLC; A498 renal; OVCAR-4 ovarian; UO-31 renal; HCC-2998 colon; CCRF-CEM leukemia.
Common to all, as to assay: DTP human tumour cell line panel, 48 h

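Each compound was tested at five concentrations against cells in 96-well plates for 48 hours. GI50 is the concentration that inhibits growth by half. TGI is the concentration that stops growth completely.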

As a reminder, the GI50 is the concentration giving 50% growth inhibition. As a reminder, the TGI is the concentration at which net growth stops. Higher therefore signals less potent growth arrest. Take `CC1=C[C@H]2c3c(c(O)c(O)c4oc(-c5ccccc5)cc(=O)c34)[C@H](c3cc(O)c(O)c4oc(-c5ccccc5)cc(=O)c34)[C@H]2C(C)(C)C1`: the GI50 is 0.597 µM with MCF7 breast; 1.57 µM in the assay on TK-10 renal; 0.275 µM in the assay with NCI-H460 lung; 1.36 µM with NCI-H226 lung; 1.14 µM in the assay on EKVX NSCLC; 0.659 µM with A498 renal. Further, the GI50 is 1.56 µM in the assay on OVCAR-4 ovarian, 0.527 µM in the assay with UO-31 renal, 1.56 µM in the assay on HCC-2998 colon and 0.67 µM with CCRF-CEM leukemia. Besides, the TGI with MCF7 breast turned out to be 9.16 µM; in the assay with TK-10 renal, 31 µM; with NCI-H460 lung it was 1.83 µM; with NCI-H226 lung it was 3.59 µM; with EKVX NSCLC it was 11.4 µM; in the assay on A498 renal, 3.72 µM. In addition, the TGI is 9.55 µM in the assay with OVCAR-4 ovarian, 2 µM with UO-31 renal, 4.65 µM in the assay on HCC-2998 colon and more than 75 µM in the assay with CCRF-CEM leukemia.
On to `O=C1CSC(c2ccc(Cl)cc2Cl)N1c1ccc(F)cc1` (stereo not given), for which the GI50 in the assay with MCF7 breast is 14 µM; in the assay with TK-10 renal, 14.4 µM; in the assay on NCI-H460 lung, 16 µM; in the assay with NCI-H226 lung it was 18.2 µM; in the assay with EKVX NSCLC, 17.6 µM; in the assay on A498 renal, 15.9 µM. For the same compound, the GI50 in the assay with OVCAR-4 ovarian was 16.8 µM; in the assay with UO-31 renal, 16.6 µM; in the assay on HCC-2998 colon, 17.6 µM; in the assay with CCRF-CEM leukemia, 2.19 µM. In addition, the TGI in the assay with MCF7 breast was 27 µM; in the assay with TK-10 renal it was 27.7 µM; in the assay on NCI-H460 lung, 29.9 µM; in the assay on NCI-H226 lung, 38.2 µM; in the assay on EKVX NSCLC, 34.8 µM; with A498 renal it was 29.8 µM. Besides, the TGI came out at 31.9 µM in the assay with OVCAR-4 ovarian, 31.5 µM with UO-31 renal, 31.5 µM with HCC-2998 colon and 19 µM in the assay on CCRF-CEM leukemia.
Regarding `C=C1CCC(CC[C@@H]2CC[C@]3(OC2)O[C@@]2(O)CC[C@]3(C)OC2(C)C)C(C)(C)[C@H]1C/C=C1/C(=O)OC[C@@H]1O` (stereo not given in full), the total growth inhibition concentration (TGI) in the assay on MCF7 breast amounted to 2.94 µM; in the assay on TK-10 renal, 11.5 µM; in the assay on NCI-H460 lung it was 15.1 µM; with NCI-H226 lung, 6.94 µM; with EKVX NSCLC, 11.3 µM; with A498 renal, 15.2 µM. The TGI worked out at 5.51 µM in the assay with OVCAR-4 ovarian, 9.33 µM with UO-31 renal, 10.2 µM with HCC-2998 colon and 2.32 µM in the assay on CCRF-CEM leukemia.
In the case of `CCSc1nc(SCC)c2cn[nH]c2n1`, the GI50 in the assay on MCF7 breast is 26.5 µM; in the assay on TK-10 renal, 58.3 µM; in the assay with NCI-H460 lung, 31.9 µM; with NCI-H226 lung it was 25.6 µM; in the assay on EKVX NSCLC, 18.9 µM; with A498 renal, 2.47 µM. In addition, the GI50 was 84.1 µM in the assay with OVCAR-4 ovarian, 34.9 µM in the assay on UO-31 renal, 35.6 µM in the assay with HCC-2998 colon and 41.5 µM in the assay with CCRF-CEM leukemia. The TGI was more than 100 µM with MCF7 breast; more than 100 µM in the assay on TK-10 renal; more than 100 µM in the assay on NCI-H460 lung; more than 100 µM with NCI-H226 lung; more than 100 µM in the assay on EKVX NSCLC; 13.1 µM in the assay on A498 renal. Further, the TGI in the assay with OVCAR-4 ovarian, with UO-31 renal, in the assay with HCC-2998 colon and with CCRF-CEM leukemia was more than 100 µM throughout.
Consider `ClCc1cccc(Cn2cnc3nc(Cl)nc(Cl)c32)c1`, for which the GI50 in the assay on MCF7 breast was 0.505 µM; in the assay with TK-10 renal, 5.95 µM; in the assay with NCI-H460 lung it was 1.72 µM; with NCI-H226 lung, 1.04 µM; with EKVX NSCLC, 0.84 µM; in the assay with A498 renal it was 1.52 µM. The GI50 with OVCAR-4 ovarian is 1.56 µM; in the assay with UO-31 renal, 4.43 µM; with HCC-2998 colon it was 1.52 µM; in the assay on CCRF-CEM leukemia, 0.31 µM. Also, the concentration for total growth inhibition (TGI) with MCF7 breast was 1.38 µM; with TK-10 renal, 10.8 µM; with NCI-H460 lung, 3.09 µM; with NCI-H226 lung, 3.54 µM; in the assay on EKVX NSCLC, 2.2 µM; with A498 renal, 2.9 µM. Moreover, the TGI in the assay on OVCAR-4 ovarian is 3.21 µM; with UO-31 renal, 9.1 µM; in the assay with HCC-2998 colon, 2.9 µM; in the assay with CCRF-CEM leukemia, 0.973 µM.
In the case of `COc1ccc(CC2NCCc3cc(OC)c(OC)cc32)cc1Br` (stereo not given), the TGI in the assay on MCF7 breast is more than 100 µM; in the assay with TK-10 renal it was more than 89.8 µM; with NCI-H460 lung, more than 71.4 µM; in the assay on NCI-H226 lung it was 73.9 µM; with EKVX NSCLC, more than 100 µM; with A498 renal, more than 79.1 µM. Also, the total growth inhibition concentration (TGI) in the assay with OVCAR-4 ovarian is more than 100 µM; in the assay with UO-31 renal, more than 100 µM; in the assay with HCC-2998 colon, 34.6 µM; in the assay with CCRF-CEM leukemia, more than 85.3 µM.
On to `O=c1c2ccccc2c(=O)c2c1[nH]c1c(-c3ccccc3)c(-c3ccccc3)c(=O)c12`, for which the GI50 in the assay with MCF7 breast is 2.48 µM; with TK-10 renal it was 4.84 µM; with NCI-H460 lung, 2.82 µM; with NCI-H226 lung it was 3.56 µM; with EKVX NSCLC, 3.2 µM; in the assay on A498 renal, 3.12 µM. Moreover, the GI50 was 6.43 µM with OVCAR-4 ovarian, 1.75 µM in the assay on UO-31 renal, 2.09 µM in the assay on HCC-2998 colon and 1.46 µM in the assay with CCRF-CEM leukemia. Besides, the TGI in the assay on MCF7 breast is more than 100 µM; with TK-10 renal, 52.3 µM; with NCI-H460 lung, 12 µM; in the assay on NCI-H226 lung it was 44.5 µM; with EKVX NSCLC it was 11.8 µM; in the assay with A498 renal, 7.69 µM. The TGI with OVCAR-4 ovarian was more than 100 µM; with UO-31 renal, 5.55 µM; in the assay with HCC-2998 colon, 5.05 µM; with CCRF-CEM leukemia it was 11 µM.
For the compound `C#Cc1c(I)n(C2OC(CO[Si](C)(C)C(C)(C)C)C3OC(C)(C)OC32)c(=O)[nH]c1=O` (stereo not given), the GI50 in the assay with MCF7 breast is 16.6 µM; with TK-10 renal it was 11.2 µM; in the assay on NCI-H460 lung, 20 µM; with NCI-H226 lung, 17.7 µM; in the assay with EKVX NSCLC it was 20.6 µM; with A498 renal it was 17.1 µM. In addition, the GI50 is 17.8 µM in the assay with OVCAR-4 ovarian, 1.99 µM with UO-31 renal, 2.36 µM in the assay with HCC-2998 colon and 4 µM in the assay on CCRF-CEM leukemia. The TGI was 50 µM with MCF7 breast; 26.5 µM with TK-10 renal; 40.4 µM in the assay with NCI-H460 lung; 32.5 µM in the assay with NCI-H226 lung; 52.3 µM in the assay with EKVX NSCLC; 35.7 µM in the assay on A498 renal. For the same compound, the TGI in the assay with OVCAR-4 ovarian came out at 37.6 µM; in the assay with UO-31 renal, 5.49 µM; with HCC-2998 colon it was 6.38 µM; in the assay with CCRF-CEM leukemia it was 11.9 µM.

The values are drawn from PubChem BioAssay (NCI).
